{"source": "patent US7202280B2", "about": "“Methods for the treatment and prevention of pancreatitis and for induction of liver regeneration” (priority 2002, dated 2007)", "key": {"[1]": {"system": "SSAT transgenic rats", "assay": "Stability of the analogues in the liver of SSAT transgenic rats without or with MDL72527 (hepatic polyamine pools)", "format": "in vivo, rat", "method": "FIGS. 8A-8D. Hepatic polyamine pools in SSAT transgenic rats treated with methylated polyamine analogues without or with MDL72527. The rats were injected twice with MDL72527 (50 mg/kg i.p.) at 16-h interval. The polyamine analogues (25 mg/kg i.p.) were injected 2 and 8 h later. The animals were sacrificed 24 h after the last MDL72527 injection. There were three to four animals in each group. Put, putrescine; […] Spd, spermidine; Me-Spd, α-methylspermidine; […] The production of transgenic Wistar rats (UKUR30) and mice (UKU181) harboring metallothionein-SSAT fusion gene (Suppola, […]., Porter, C. W., and Jänne, J. (1999) Biochem. […] (2000) Proc. Natl. Acad. Sci. U.S.A. 97, 8290-8295; Lukkarinen, […]., and Alhonen, L. (1997) Stroke 28, 639-645). Partial hepatectomy was carried out according to the original method of Higgins and Anderson (Higgins, G. H., and Anderson, R. M. (1931) Arch. Pathol. 12, 186-202). Treatments before partial hepatectomy and the determination of DNA synthesis were carried out as in ([…]., Suppola, […]., and […]. Biol. Chem. 277, 39867-39872). Transgenic 10 weeks old male rats were injected twice with MDL72527 (50 mg/kg i.p.) at 16-h interval to inactivate PAO according to (Bolkenius, F. N., Bey, P., and Seiler, N. (1985) Biochim. Biophys. […] An aliquot of the homogenates was used for the polyamine assays. The homogenates were centrifuged (at 13 000×g, for 30 min, at 4° C.) and the supernatants were used for the enzyme activity assays. The Institutional Animal Care and Use Committee of the University of Kuopio and by the Provincial Government approved animal experiments. […] Merck (Darmstadt, Germany)."}, "[2]": {"system": "syngenic and UKU181 transgenic mice", "assay": "Plasma α-amylase and ALAT in syngenic and transgenic mice after analogue injection", "format": "in vivo, mouse", "conditions": "24 h before sacrifice", "method": "(§1) α-methylspermidine, Bis-α-methylspermine and α-methylspermine were administered in saline. […] The data are expressed as means ±S.D. For statistical analysis, the two-tailed Student's t test was used."}, "[3]": {"system": "SSAT", "assay": "Hepatic, pancreatic and renal SSAT activity in syngenic and metallothionein-SSAT mice after analogue", "format": "in vivo, mouse", "conditions": "24 h before sacrifice", "method": "as §1"}, "[4]": {"conditions": "Tg (transgenic) mice, 12.5 mg/kg"}, "[5]": {"conditions": "Tg (transgenic) mice, 37.5 mg/kg"}}, "data": [{"compound": "CC(N)CCNCCCCNCCCN", "note": "(stereo not drawn) [α-methylspermine, 1-methylspermine]", "values": [{"measurement": "metabolic stability / conversion in the liver in vivo", "setting": "[1]; 25 mg/kg i.p. twice, without MDL72527", "value": "effectively converted to α-methylspermidine"}, {"measurement": "conversion to α-methylspermidine in the liver", "setting": "[1]; with MDL72527 50 mg/kg i.p. twice", "value": "markedly inhibited"}, {"measurement": "Plasma ALAT", "setting": "[2]; Sg (syngenic) mice, 12.5 mg/kg", "value": "54.33 ± 4.16", "unit": "U/dm^3"}, {"measurement": "Plasma α-amylase", "setting": "[2]; Sg (syngenic) mice, 12.5 mg/kg", "value": "2352.00 ± 206.37", "unit": "U/dm^3"}, {"measurement": "Plasma ALAT", "setting": "[2]; Sg (syngenic) mice, 25 mg/kg", "value": "43.67 ± 4.04", "unit": "U/dm^3"}, {"measurement": "Plasma α-amylase", "setting": "[2]; Sg (syngenic) mice, 25 mg/kg", "value": "2645.67 ± 161.87 ^+ U/dm^3"}, {"measurement": "Plasma ALAT", "setting": "[2]; Sg (syngenic) mice, 37.5 mg/kg", "value": "47.67 ± 13.43", "unit": "U/dm^3"}, {"measurement": "Plasma α-amylase", "setting": "[2]; Sg (syngenic) mice, 37.5 mg/kg", "value": "2610.67 ± 144.67", "unit": "U/dm^3"}, {"measurement": "Plasma ALAT", "setting": "[2]; Sg (syngenic) mice, 50 mg/kg", "value": "49.00 ± 2.83", "unit": "U/dm^3"}, {"measurement": "Plasma α-amylase", "setting": "[2]; Sg (syngenic) mice, 50 mg/kg", "value": "2512.33 ± 275.71", "unit": "U/dm^3"}, {"measurement": "Plasma ALAT", "setting": "[2]; [4]", "value": "58.67 ± 7.77", "unit": "U/dm^3"}, {"measurement": "Plasma α-amylase", "setting": "[2]; [4]", "value": "2675.67 ± 305.64", "unit": "U/dm^3"}, {"measurement": "Plasma ALAT", "setting": "[2]; Tg (transgenic) mice, 25 mg/kg", "value": "44.67 ± 5.69", "unit": "U/dm^3"}, {"measurement": "Plasma α-amylase", "setting": "[2]; Tg (transgenic) mice, 25 mg/kg", "value": "2044.67 ± 112.93", "unit": "U/dm^3"}, {"measurement": "Plasma ALAT", "setting": "[2]; [5]", "value": "37.00 ± 2.83", "unit": "U/dm^3"}, {"measurement": "Plasma α-amylase", "setting": "[2]; [5]", "value": "2450.00 ± 410.12", "unit": "U/dm^3"}, {"measurement": "Plasma ALAT", "setting": "[2]; Tg (transgenic) mice, 50 mg/kg", "value": "41.33 ± 3.79", "unit": "U/dm^3"}, {"measurement": "Plasma α-amylase", "setting": "[2]; Tg (transgenic) mice, 50 mg/kg", "value": "2667.00 ± 297.24", "unit": "U/dm^3"}, {"measurement": "SSAT activity, Kidney", "setting": "[3]; Sg (syngenic) mice, 12.5 mg/kg", "value": "3.65 ± 2.39 ^+ pmoles/10 min/ tissue wet weight"}, {"measurement": "SSAT activity, Liver", "setting": "[3]; Sg (syngenic) mice, 12.5 mg/kg", "value": "0.47 pmoles/10 min/ tissue wet weight"}, {"measurement": "SSAT activity, Pancreas", "setting": "[3]; Sg (syngenic) mice, 12.5 mg/kg", "value": "2.03 pmoles/10 min/ tissue wet weight"}, {"measurement": "SSAT activity, Kidney", "setting": "[3]; Sg (syngenic) mice, 25 mg/kg", "value": "2.76 ± 2.52 pmoles/10 min/ tissue wet weight"}, {"measurement": "SSAT activity, Liver", "setting": "[3]; Sg (syngenic) mice, 25 mg/kg", "value": "0.26 pmoles/10 min/ tissue wet weight"}, {"measurement": "SSAT activity, Pancreas", "setting": "[3]; Sg (syngenic) mice, 25 mg/kg", "value": "1.72 pmoles/10 min/ tissue wet weight"}, {"measurement": "SSAT activity, Kidney", "setting": "[3]; Sg (syngenic) mice, 37.5 mg/kg", "value": "4.29 ± 2.38 pmoles/10 min/ tissue wet weight"}, {"measurement": "SSAT activity, Liver", "setting": "[3]; Sg (syngenic) mice, 37.5 mg/kg", "value": "0.75 pmoles/10 min/ tissue wet weight"}, {"measurement": "SSAT activity, Pancreas", "setting": "[3]; Sg (syngenic) mice, 37.5 mg/kg", "value": "1.46 pmoles/10 min/ tissue wet weight"}, {"measurement": "SSAT activity, Kidney", "setting": "[3]; Sg (syngenic) mice, 50 mg/kg", "value": "3.20 ± 2.40 pmoles/10 min/ tissue wet weight"}, {"measurement": "SSAT activity, Liver", "setting": "[3]; Sg (syngenic) mice, 50 mg/kg", "value": "0.52 pmoles/10 min/ tissue wet weight"}, {"measurement": "SSAT activity, Pancreas", "setting": "[3]; Sg (syngenic) mice, 50 mg/kg", "value": "2.23 pmoles/10 min/ tissue wet weight"}, {"measurement": "SSAT activity, Kidney", "setting": "[3]; [4]", "value": "5.86 ± 1.91 pmoles/10 min/ tissue wet weight"}, {"measurement": "SSAT activity, Liver", "setting": "[3]; [4]", "value": "21.19 pmoles/10 min/ tissue wet weight"}, {"measurement": "SSAT activity, Pancreas", "setting": "[3]; [4]", "value": "609.10 pmoles/10 min/ tissue wet weight"}, {"measurement": "SSAT activity, Kidney", "setting": "[3]; Tg (transgenic) mice, 25 mg/kg", "value": "3.06 ± 2.23 pmoles/10 min/ tissue wet weight"}, {"measurement": "SSAT activity, Liver", "setting": "[3]; Tg (transgenic) mice, 25 mg/kg", "value": "30.81 pmoles/10 min/ tissue wet weight"}, {"measurement": "SSAT activity, Pancreas", "setting": "[3]; Tg (transgenic) mice, 25 mg/kg", "value": "561.36 pmoles/10 min/ tissue wet weight"}, {"measurement": "SSAT activity, Kidney", "setting": "[3]; [5]", "value": "3.47 ± 2.52 pmoles/10 min/ tissue wet weight"}, {"measurement": "SSAT activity, Liver", "setting": "[3]; [5]", "value": "24.88 pmoles/10 min/ tissue wet weight"}, {"measurement": "SSAT activity, Pancreas", "setting": "[3]; [5]", "value": "543.84 pmoles/10 min/ tissue wet weight"}, {"measurement": "SSAT activity, Kidney", "setting": "[3]; Tg (transgenic) mice, 50 mg/kg", "value": "2.95 ± 1.82 pmoles/10 min/ tissue wet weight"}, {"measurement": "SSAT activity, Liver", "setting": "[3]; Tg (transgenic) mice, 50 mg/kg", "value": "39.44 pmoles/10 min/ tissue wet weight"}, {"measurement": "SSAT activity, Pancreas", "setting": "[3]; Tg (transgenic) mice, 50 mg/kg", "value": "707.60 pmoles/10 min/ tissue wet weight"}]}]}
